Results as given in patent US6037490A, “Boron-containing amino carboxylic acid compounds and uses thereof” (priority 1997, dated 2000).
“Also recorded” adds a separate entry of the source. Like-named read-outs stand apart in the source and are kept apart here. Values belong to the molecule of their own block, whether it stands above or below them.

Assays:
A549 lung cancer cells [1] = test: Cellular boron uptake by inductively coupled plasma mass spectroscopy; assay type: cell-based
Procedure: The measurement of total cellular boron was made using inductively coupled mass spectrometry. Boron concentrations were measured against a calibration curve generated with a series of NIST traceable standards. Yttrium and indium (20 ng/ml) internal standards were employed to correct for drift. Analyte recoveries were monitored by the addition of boron spikes (20 ng/ml) to the samples. Analyte response was corrected accordingly. Finally, a boron standard of 60 ng/ml was utilized to ensure continued calibration. […] The lung cancer cell culture with boron exposed cells was washed by centrifugation twice, and the supernate was removed by suction prior to chemical analysis. […] All the reagents for sample preparation were analytical grade. Concentrated nitric acid (1-2 ml) and 30% hydrogen peroxide was applied to the cells.
The nitric acid-hydrogen peroxide cocktail was allowed 96 hours for cellular digestion in tubes that facilitated the venting of generated gases. Intermittent stirring was also performed on the sample tubes. All contents were transformed to boron-free tubes and the final volume was adjusted with distilled water to a 10 ml total volume for each sample tested.

A549 lung cancer cells [2] = test: Neutron irradiation (252Cf) cell survival, kill constant; assay type: cell-based; settings: regression of semi-log cell survival plots, 252Cf neutrons
Procedure: The irradiation was performed by known techniques. The ^252 Cf isotope is a useful source of neutrons for BNCT (Hatanaka 1991, A). The neutron spectrum and beam characteristics are similar to those of reactor fission sources with a most probable energy of about 1 MeV. A 50 mg source of ^252 Cf moderated by water provides a source of 1×10^9 thermal neutrons/cm^2 /sec at a distance of 3 cm (personnel communication Dr. R. Martin). The half-life of ^252 Cf is 2.65 years, thus this provides a simple and reliable source of neutrons for BNCT in locations without suitable nuclear reactors.
This work was performed using sealed ^252 Cf source capsules in a hot cell without transferable radioactive contamination using a double tube arrangement which contained 1.0 ml of A 549 lung cancer cells (maximum cell number 2×10^6 cells/ml and minimum cell number 2×10^3 cells/ml). The cancer cells were exposed to approximately 2×10^8 thermal neutrons per cm^2 per second from 30 mg of ^252 Cf. The flux of neutrons was determined by the irradiation of manganese wire and subsequent analysis of activation. The duration of exposure of cells was 30 sec. 1, 1.5, 2.0 and 4.0 minutes for control groups and boronated compounds. Following radiation exposure, the A 549 lung cancer cells were placed on ice for subculturing and cell survival studies.
All boronated compounds tested worked as agents in boron neutron capture reactions. Cell survival data was calculated from semi-log plots and subjected to a regression analysis to obtain an X coefficient (kill constant) for each compound.

A549 lung cancer cells [3] = test: Cellular toxicity, colony survival assay in A549 lung cancer cells; settings: for A549 cell survival (Table 1) / level above which all cell growth is suppressed: seven day experiment
Procedure: (§1) The cells were plated for undisturbed colony growth for seven to ten days and a survival assay was performed. Colonies were washed with isotonic saline and absolute methanol before staining with Giemsa and standard colony counting.

A549 lung cancer cells [4] = settings: for level above which all cell growth is suppressed: human, 10080 min
Procedure: as §1

[5] = tested on: human glioblastoma multiforme (brain) tumors; test: Boron biodistribution (tumor, normal brain) in mice bearing human glioblastoma multiforme tumors; assay type: in vivo; settings: sodium salt
Procedure: The water soluble sodium salt of the boron containing amino carboxylic compound VIII, was injected into four mice bearing human glioblastoma multiforme (brain) tumors on their hind quarter. One animal was sacrificed after 3 hours, 6 hours, 12 hours, and 24 hours and tissue samples were taken from the tumor, normal brain tissue, blood and muscle. At three hours the tumor contained 52 parts per million of boron and the normal brain contained only 7.6 ppm (a ratio of nearly 7:1). At twelve hours the tumor boron concentration was 37 ppm and the normal brain concentration was 3.7 ppm (a ratio of 10:1).

[6] = mice receiving the compound; cited from earlier work
tumor cells [7] = settings: cited from earlier work; for ratio of boron in tumor cells compared to normal cells: in vivo
tumor cells [8] = settings: in vivo; cited from earlier work

Molecule: 1-Amino-3-[2-(1,7 dicarba-closo-dodecacaboran(12)-1-yl)ethyl]cyclobutanecarboxylic acid [ACBC]
- Atoms of ^10 B in cell (A549 lung cancer cells [1]): 2749 × 10^9 atoms ^10 B/cell
- cellular uptake (words) (A549 lung cancer cells [1]): greatest cellular uptake; also recorded: almost two orders of magnitude greater in uptake than the other compounds tested; also recorded: excellent cellular uptake
- kill constant (absolute value of X coefficient) (A549 lung cancer cells [2]): 2.71
- A549 cell survival (Table 1) (A549 lung cancer cells [3]; 1.25 μg B/ml): 39
- A549 cell survival (Table 1) (A549 lung cancer cells [3]; 2.5 μg B/ml): 14
- A549 cell survival (Table 1) (A549 lung cancer cells [3]; 5.0 μg B/ml): 8
- A549 cell survival (Table 1) (A549 lung cancer cells [3]; 10.0 μg B/ml): 8
- A549 cell survival (Table 1) (A549 lung cancer cells [3]; 15.0 μg B/ml): 0
- A549 cell survival (Table 1) (A549 lung cancer cells [3]; 20.0 μg B/ml): 0
- toxicity (A549 lung cancer cells [4]): low toxicity
- level above which all cell growth is suppressed (A549 lung cancer cells [4]): above 10 μg B/ml

- normal brain boron concentration ([5]; 3 hours): 7.6 ppm
- normal brain boron concentration ([5]; 12 hours): 3.7 ppm
- tumor boron concentration ([5]; 3 hours after injection): 52 parts per million
- tumor boron concentration ([5]; 12 hours): 37 ppm
Molecule: 1-amino-3-[2-(7-(2-hydroxyethyl)-1,7-dicarba-nido-dodecacaboran(12)-ylethyl]cyclobutanecarboxylic acid [VIII]

Molecule: 2,4-divinyl-nido-o-carboranyldeuteroporphoryin IX [VCDP]
- mortality of mice [6]: about 10%

Molecule: 2-amino-5-[2-methyl]-1,2-dicarba-closo-dodecacarboran(12)-1-yl] pentane carboxylic acid [LSK 1-38]
- Atoms of ^10 B in cell (A549 lung cancer cells [1]): 96 × 10^9 atoms ^10 B/cell
- cellular uptake (words) (A549 lung cancer cells [1]; listed as LSK1-38): excellent cellular uptake
- cellular uptake (words) (A549 lung cancer cells [1]; listed as LSK-138): next highest cellular uptake
- kill constant (absolute value of X coefficient) (A549 lung cancer cells [2]): 2.64
- A549 cell survival (Table 1) (A549 lung cancer cells [3]; 1.25 μg B/ml): 50
- A549 cell survival (Table 1) (A549 lung cancer cells [3]; 2.5 μg B/ml): 33
- A549 cell survival (Table 1) (A549 lung cancer cells [3]; 5.0 μg B/ml): 18
- A549 cell survival (Table 1) (A549 lung cancer cells [3]; 10.0 μg B/ml): 2
- A549 cell survival (Table 1) (A549 lung cancer cells [3]; 15.0 μg B/ml): 0
- A549 cell survival (Table 1) (A549 lung cancer cells [3]; 20.0 μg B/ml): 0
- toxicity (A549 lung cancer cells [3]; A549 lung cancer cells): low toxicity
- level above which all cell growth is suppressed (A549 lung cancer cells [3]): above 10 μg B/ml

Molecule: 5(4carboranyl-1-butynyl) uridine [CDU-4]
- Atoms of ^10 B in cell (A549 lung cancer cells [1]): 10 × 10^9 atoms ^10 B/cell
- cellular uptake (words) (A549 lung cancer cells [1]): lowest in cellular uptake
- kill constant (absolute value of X coefficient) (A549 lung cancer cells [2]): 2.87
- A549 cell survival (Table 1) (A549 lung cancer cells [3]; 1.25 μg B/ml): 22
- A549 cell survival (Table 1) (A549 lung cancer cells [3]; 2.5 μg B/ml): 69
- A549 cell survival (Table 1) (A549 lung cancer cells [3]; 5.0 μg B/ml): 0
- A549 cell survival (Table 1) (A549 lung cancer cells [3]; 10.0 μg B/ml): 0
- A549 cell survival (Table 1) (A549 lung cancer cells [3]; 15.0 μg B/ml): 0
- A549 cell survival (Table 1) (A549 lung cancer cells [3]; 20.0 μg B/ml): 0
- level above which all cell growth is suppressed (A549 lung cancer cells [3]): above 2.5 μg B/ml

Molecule: 5(5carboranyl-1-pentynyl) deoxyuridine [CN-V-264]
- Atoms of ^10 B in cell (A549 lung cancer cells [1]): 50 × 10^9 atoms ^10 B/cell
- cellular uptake (words) (A549 lung cancer cells [1]): lowest in cellular uptake
- kill constant (absolute value of X coefficient) (A549 lung cancer cells [2]): 2.88
- A549 cell survival (Table 1) (A549 lung cancer cells [3]; 1.25 μg B/ml): 10
- A549 cell survival (Table 1) (A549 lung cancer cells [3]; 2.5 μg B/ml): 4
- A549 cell survival (Table 1) (A549 lung cancer cells [3]; 5.0 μg B/ml): 0
- A549 cell survival (Table 1) (A549 lung cancer cells [3]; 10.0 μg B/ml): 0
- A549 cell survival (Table 1) (A549 lung cancer cells [3]; 15.0 μg B/ml): 0
- A549 cell survival (Table 1) (A549 lung cancer cells [3]; 20.0 μg B/ml): 0
- level above which all cell growth is suppressed (A549 lung cancer cells [4]): above 2.5 μg B/ml

Molecule: N[C@@H](Cc1ccc(B(O)O)cc1)C(=O)O [BPA, boronophenylalanine]
- deleterious effects (tumor cells [7]; compared with porphyrin): without the deleterious effects seen, for example, with porphyrin

Molecule: O=BOB(O)OB(O)OB=O [borax]
- BNCT treatment outcome (tumor cells [8]): treatment failure because of the lack of localization of boron within tumor cells

Molecule: O=C(O)c1ccc(B(O)O)cc1 [p-carboxybenzeneboronic acid]
- BNCT treatment outcome (tumor cells [8]): failed due to vascular damage caused by high blood levels of boron
- ratio of boron in tumor cells compared to normal cells (tumor cells [7]): high ratios of boron in tumor cells compared to normal cells

Molecule: O=BOB1OB2OB([O-])OB(O1)O2.[Na+] [sodium pentaborate]
- BNCT treatment outcome (tumor cells [8]): treatment failure because of the lack of localization of boron within tumor cells

Molecule: sodium decahydrodecaborate
- BNCT treatment outcome (tumor cells [8]): failed due to vascular damage caused by high blood levels of boron
- ratio of boron in tumor cells compared to normal cells (tumor cells [7]): high ratios of boron in tumor cells compared to normal cells
